# Test results as given in US10597388B2, “Pyridazinone herbicides” (FMC CORPORATION, priority 2014, dated 2020).
# What was measured:
# Type in all cases: in vivo
# [1] = tested on: corn (Zea mays); test: Test C greenhouse herbicide test, pre- and postemergence
# Summary of the method: (§1)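 Visual 0–100 injury score (100 = complete control) taken against untreated controls after 13–15 d in greenhouse. Test chemicals, formulated in solvent plus surfactant, applied preemergence to seeds in loam–sand soil or postemergence to 1- to 4-leaf plants (2–18 cm).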
# [2] = tested on: ryegrass, Italian (Italian ryegrass, Lolium multiflorum); test: as above
# Summary of the method: as §1
# [3] = tested on: galium (catchweed bedstraw, Galium aparine); test: Test A greenhouse herbicide test, postemergence; conditions: for Plant response rating, Galium: 125 g ai/ha, 0 to 100 scale where 0 is no effect and 100 is complete control; for Galium plant response rating: 500 g ai/ha, 0 to 100 scale, 0 is no effect, 100 is complete control
# Summary of the method: (§2)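 Scores are visual injury ratings from 0 (no effect) to 100 (complete control) versus untreated plants, taken roughly 10 d after treatment in the greenhouse. Treatment was postemergence, on one- to two-leaf plants 2–10 cm high growing in a loam soil/sand mix.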
# [4] = tested on: blackgrass (Alopecurus myosuroides); test: Test A greenhouse herbicide test, postemergence; conditions: for Plant response rating, Blackgrass: 125 g ai/ha, 0 to 100 scale where 0 is no effect and 100 is complete control; for Blackgrass plant response rating: 500 g ai/ha, 0 to 100 scale, 0 is no effect, 100 is complete control
# Summary of the method: as §2
# [5] = tested on: ryegrass, Italian (Italian ryegrass, Lolium multiflorum); test: Test A greenhouse herbicide test, pre- and postemergence
# Summary of the method: (§3)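 Visual injury ratings, 0 (no effect) to 100 (complete control), versus untreated plants after roughly 10 d in a greenhouse. Compounds, formulated in a surfactant-containing non-phytotoxic solvent, were sprayed on loam–sand soil after sowing (pre) or on one- to two-leaf plants 2–10 cm tall (post).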
# [6] = tested on: ragweed (common ragweed, Ambrosia elatior); test: as above
# Summary of the method: as §3
# [7] = tested on: wheat (Triticum aestivum); test: as above; conditions: Postemergence; for Plant response rating, Wheat: 125 g ai/ha, 0 to 100 scale where 0 is no effect and 100 is complete control; for Wheat plant response rating: 500 g ai/ha, 0 to 100 scale, 0 is no effect, 100 is complete control
# Summary of the method: as §3
# [8] = tested on: pigweed (Amaranthus retroflexus); test: as above
# Summary of the method: as §3
# [9] = tested on: foxtail, giant (giant foxtail, Setaria faberii); test: as above
# Summary of the method: as §3
# [10] = tested on: barnyardgrass (Echinochloa crus-galli); test: as above
# Summary of the method: as §3
# [11] = tested on: kochia (Kochia scoparia); test: as above
# Summary of the method: as §3
# [12] = Postemergence, 31 g ai/ha, 0 to 100 scale (0 no effect, 100 complete control)
# [13] = Postemergence, 125 g ai/ha, scale 0 to 100, 0 is no effect, 100 is complete control
# [14] = Postemergence, 250 g ai/ha, scale 0 to 100, 0 no effect, 100 complete control, 13 to 15 d
# [15] = postemergence, 62 g ai/ha, scale 0 to 100, 0 no effect, 100 complete control
# [16] = Postemergence, 125 g ai/ha, 0 to 100 scale where 0 is no effect and 100 is complete control
# [17] = Postemergence, 500 g ai/ha, 0 to 100 scale, 0 is no effect, 100 is complete control
# [18] = Preemergence, 125 g ai/ha, 0 to 100 scale where 0 is no effect and 100 is complete control
# [19] = Preemergence, 500 g ai/ha, 0 to 100 scale, 0 no effect, 100 complete control
# [20] = Preemergence, 31 g ai/ha, scale 0 to 100, 0 is no effect, 100 is complete control
# [21] = Preemergence, 62 g ai/ha, scale 0 to 100, 0 is no effect, 100 is complete control
# [22] = Preemergence, 125 g ai/ha, scale 0 to 100, 0 is no effect, 100 is complete control
# [23] = Preemergence, 250 g ai/ha, scale 0 to 100 (0 no effect, 100 complete control)
structure (smiles),measurement,setting,value
Cc1ccc2ccccc2c1-c1c(O)cnn(C)c1=O [Compound 56],Corn plant response rating,[1]; [12],0
same,"Plant response rating, Corn",[1]; [13],0
same,"Plant response rating, Corn",[1]; [14],0
same,Corn plant response rating,[1]; [15],0
same,"Ryegrass, Italian plant response rating",[2]; [12],40
same,"Plant response rating, Ryegrass, Italian",[2]; [13],65
same,"Plant response rating, Ryegrass, Italian",[2]; [14],90
same,"Ryegrass, Italian plant response rating",[2]; [15],60
same,"Plant response rating, Galium",[3],90
same,Galium plant response rating,[3],100
same,"Plant response rating, Blackgrass",[4],30
same,Blackgrass plant response rating,[4],50
same,"Plant response rating, Ryegrass, Italian",[5]; [16],90
same,"Ryegrass, Italian plant response rating",[5]; [17],100
same,"Ryegrass, Italian plant response rating",[5]; [18],100
same,"Plant response rating, Ryegrass, Italian",[5]; [19],100
same,"Plant response rating, Ragweed",[6]; [16],70
same,Ragweed plant response rating,[6]; [17],90
same,Ragweed plant response rating,[6]; [18],80
same,"Plant response rating, Ragweed",[6]; [19],90
same,"Plant response rating, Wheat",[7],10
same,Wheat plant response rating,[7],50
same,"Plant response rating, Pigweed",[8]; [16],80
same,Pigweed plant response rating,[8]; [17],90
same,Pigweed plant response rating,[8]; [18],60
same,"Plant response rating, Pigweed",[8]; [19],100
same,"Plant response rating, Foxtail, Giant",[9]; [16],20
same,"Foxtail, Giant plant response rating",[9]; [17],60
same,"Foxtail, Giant plant response rating",[9]; [18],30
same,"Plant response rating, Foxtail, Giant",[9]; [19],70
same,"Plant response rating, Barnyardgrass",[10]; [16],10
same,Barnyardgrass plant response rating,[10]; [17],60
same,Barnyardgrass plant response rating,[10]; [18],10
same,"Plant response rating, Barnyardgrass",[10]; [19],50
same,"Plant response rating, Kochia",[11]; [16],90
same,Kochia plant response rating,[11]; [17],100
same,Kochia plant response rating,[11]; [18],40
same,"Plant response rating, Kochia",[11]; [19],90
Cc1ccc2ccccc2c1-c1c(O)c(C)nn(C)c1=O [Compound 59],Corn plant response rating,[1]; [12],5
same,"Plant response rating, Corn",[1]; [13],65
same,"Plant response rating, Corn",[1]; [14],50
same,"Plant response rating, Corn",[1]; [20],0
same,"Plant response rating, Corn",[1]; [21],20
same,"Plant response rating, Corn",[1]; [22],50
same,Corn plant response rating,[1]; [23],65
same,Corn plant response rating,[1]; [15],45
same,"Ryegrass, Italian plant response rating",[2]; [12],85
same,"Plant response rating, Ryegrass, Italian",[2]; [13],90
same,"Plant response rating, Ryegrass, Italian",[2]; [14],95
same,"Plant response rating, Ryegrass, Italian",[2]; [20],100
same,"Plant response rating, Ryegrass, Italian",[2]; [21],100
same,"Plant response rating, Ryegrass, Italian",[2]; [22],100
same,"Ryegrass, Italian plant response rating",[2]; [23],100
same,"Ryegrass, Italian plant response rating",[2]; [15],90
same,"Plant response rating, Galium",[3],100
same,Galium plant response rating,[3],100
same,"Plant response rating, Blackgrass",[4],90
same,Blackgrass plant response rating,[4],100
same,"Plant response rating, Ryegrass, Italian",[5]; [16],100
same,"Ryegrass, Italian plant response rating",[5]; [17],100
same,"Ryegrass, Italian plant response rating",[5]; [18],90
same,"Plant response rating, Ryegrass, Italian",[5]; [19],100
same,"Plant response rating, Ragweed",[6]; [16],90
same,Ragweed plant response rating,[6]; [17],100
same,Ragweed plant response rating,[6]; [18],90
same,"Plant response rating, Ragweed",[6]; [19],100
same,"Plant response rating, Wheat",[7],50
same,Wheat plant response rating,[7],100
same,"Plant response rating, Pigweed",[8]; [16],100
same,Pigweed plant response rating,[8]; [17],100
same,Pigweed plant response rating,[8]; [18],100
same,"Plant response rating, Pigweed",[8]; [19],100
same,"Plant response rating, Foxtail, Giant",[9]; [16],90
same,"Foxtail, Giant plant response rating",[9]; [17],100
same,"Foxtail, Giant plant response rating",[9]; [18],90
same,"Plant response rating, Foxtail, Giant",[9]; [19],100
same,"Plant response rating, Barnyardgrass",[10]; [16],80
same,Barnyardgrass plant response rating,[10]; [17],90
same,Barnyardgrass plant response rating,[10]; [18],80
same,"Plant response rating, Barnyardgrass",[10]; [19],100
same,"Plant response rating, Kochia",[11]; [16],100
same,Kochia plant response rating,[11]; [17],100
same,Kochia plant response rating,[11]; [18],90
same,"Plant response rating, Kochia",[11]; [19],90
